Assays:
[1] = molecular target: T1, recombinant human ACE2 (rhACE2) (Homo sapiens, UniProt Q9BYF1); assay: fluorogenic peptide hydrolysis assay; type: biochemical
T1 construct: recombinant human ACE2 from Calbiochem for the constants
Text: fluorogenic peptide hydrolysis assay on recombinant human ACE2 (rhACE2)

[2] = system: T2, B38-CAP; assay: fluorogenic peptide hydrolysis assay; type: biochemical, Paenibacillus sp. B38; conditions: pH 7.5 HEPES, 0.3 M NaCl, 0.01% Triton X-100, 37 °C, 30 min; fluorogenic ACE2 substrate
T2 construct: no tag mentioned
Text: fluorogenic peptide hydrolysis assay on B38-CAP

T1 sequence (Q9BYF1 18-740 limits assumed): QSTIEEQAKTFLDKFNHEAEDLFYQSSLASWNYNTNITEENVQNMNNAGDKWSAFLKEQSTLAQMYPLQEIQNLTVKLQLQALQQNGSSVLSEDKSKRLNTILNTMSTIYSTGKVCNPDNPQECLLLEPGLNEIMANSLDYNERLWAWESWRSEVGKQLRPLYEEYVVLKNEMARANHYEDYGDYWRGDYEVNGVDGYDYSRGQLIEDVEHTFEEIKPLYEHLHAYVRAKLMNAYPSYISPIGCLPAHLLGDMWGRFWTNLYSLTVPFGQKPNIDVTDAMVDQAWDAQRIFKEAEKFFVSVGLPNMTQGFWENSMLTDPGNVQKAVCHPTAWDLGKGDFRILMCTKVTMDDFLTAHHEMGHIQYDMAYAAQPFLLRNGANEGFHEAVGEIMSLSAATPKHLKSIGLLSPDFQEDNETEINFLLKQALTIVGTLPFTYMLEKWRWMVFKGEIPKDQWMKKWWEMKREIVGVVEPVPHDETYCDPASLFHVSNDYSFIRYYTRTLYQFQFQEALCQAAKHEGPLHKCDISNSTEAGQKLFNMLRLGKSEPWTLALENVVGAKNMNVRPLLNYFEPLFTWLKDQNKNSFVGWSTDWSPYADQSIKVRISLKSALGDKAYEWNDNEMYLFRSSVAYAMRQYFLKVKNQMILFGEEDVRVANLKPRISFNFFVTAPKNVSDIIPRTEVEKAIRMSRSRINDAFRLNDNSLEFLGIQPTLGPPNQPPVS

In the case of `CC(C)C[C@H](N[C@@H](Cc1cncn1Cc1cc(Cl)cc(Cl)c1)C(=O)O)C(=O)O` [MLN-4760], the IC50 [1] is reported as 0.34 ± 0.0501 nM and the IC50 [2] is reported as 0.71 ± 0.173 nM.

Reference: paper PMC7044196, “B38-CAP is a bacteria-derived ACE2-like enzyme that suppresses hypertension and cardiac dysfunction” (Nature Communications, 2020)
